Data: patent US12178842B2, “PCSK9 antagonist compounds” (MERCK SHARP & DOHME LLC, priority 2019, dated 2024)

Experiments:
Assay type in all cases: binding
PCSK9 [1] = biological target: T1, PCSK9 (Homo sapiens, UniProt Q8NBP7); assay: PCSK9 Alexa FRET Ultra TR-FRET assay
T1 construct: biotin (biotinylated); purchased
How it was run: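 Competition of compounds with AlexaFluor-tagged cyclic peptide (1920 nM solution, not final) for europium-labeled PCSK9, read by TR-FRET after at least 2 h at room temperature. IC50 from sigmoidal fit, converted to Ki (nM) using peptide KD; falling europium counts flag false positives.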

PCSK9 [2] = biological target: T1, PCSK9; assay: PCSK9 Alexa FRET Plus TR-FRET assay
How it was run: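 TR-FRET competition between europium-labeled PCSK9 and AlexaFluor-tagged cyclic peptide (prepared at 1920 nM stock), incubated at least 2 h at room temperature. IC50 from sigmoidal nonlinear fit converted to Ki using the peptide KD; falling europium counts flag false-positive inhibition; values reported in nM.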

PCSK9 [3] = biological target: T1, PCSK9; assay: PCSK9 Alexa FRET Standard TR-FRET assay; settings: Ki calculated from IC50 and KD of AF cyclic peptide Reagent A; 0.5 nM PCSK9, 20 nM AF cyclic peptide; read-out: Alexa FRET Stdt TR-FRET
How it was run: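 TR-FRET displacement with final 0.5 nM biotinylated PCSK9, 1.25 nM streptavidin-Eu and 20 nM AlexaFluor cyclic peptide in 50 mM HEPES pH 7.4, 0.15 M NaCl, 5 mM CaCl2, 0.01% BSA, 0.01% P20; ≥2 h at room temperature. IC50 by sigmoidal fit, converted to Ki (nM) using tracer KD.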

[4] = Ki Ultra, calculated from IC50 and KD of AF cyclic peptide, 0.5 nM PCSK9, 960 nM AF cyclic peptide, read-out: Alexa FRET Ultra TR-FRET
[5] = Ki calculated from IC50 and KD of AF cyclic peptide Reagent B, 0.5 nM PCSK9, 960 nM AF cyclic peptide, read-out: Alexa FRET Plus TR-FRET

T1 sequence (Q8NBP7 153-692): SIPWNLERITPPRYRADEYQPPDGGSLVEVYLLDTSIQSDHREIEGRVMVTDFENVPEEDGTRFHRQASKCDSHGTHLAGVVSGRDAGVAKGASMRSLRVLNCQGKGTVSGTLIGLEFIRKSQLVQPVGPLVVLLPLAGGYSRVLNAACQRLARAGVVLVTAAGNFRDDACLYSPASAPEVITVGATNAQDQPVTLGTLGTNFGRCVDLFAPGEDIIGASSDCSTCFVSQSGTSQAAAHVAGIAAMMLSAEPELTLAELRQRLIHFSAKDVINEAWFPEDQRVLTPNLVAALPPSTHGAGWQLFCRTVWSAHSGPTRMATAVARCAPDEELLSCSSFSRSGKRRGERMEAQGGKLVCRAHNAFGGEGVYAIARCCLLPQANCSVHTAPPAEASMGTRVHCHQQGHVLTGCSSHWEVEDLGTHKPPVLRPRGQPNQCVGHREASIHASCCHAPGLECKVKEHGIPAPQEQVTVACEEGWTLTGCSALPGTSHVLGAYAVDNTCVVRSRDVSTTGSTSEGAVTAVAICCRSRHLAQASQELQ

Row | Ki (PCSK9 [1]; [4]) | Ki (PCSK9 [2]; [5]) | Ki (PCSK9 [3]) | SMILES | Ki (PCSK9 [1]) | Ki (PCSK9 [2])
1 | 6 pM | < 6 pM | < 1.26 nM | COc1ccc(C[C@@H]2NC(=O)[C@H]([C@@H](C)O)NC(=O)[C@@H]3[C@@H]4CCN3C(=O)[C@@H]3Cc5cn(c6ccc(F)cc56)CCCCCCN(Cc5ccc(cc5)CCNC(=O)[C@]5(C)CCCN5C2=O)C(=O)CCC(=O)N[C@@H](C)C(=O)N[C@H](CNC(=O)COCCOCCNC(=O)COCCOCCNC(=O)CC[C@H](NC(=O)CC[C@H](NC(=O)CCOCCOCC[N+](C)(C)CCNC(=O)CCCCCCCCCCCCCCC(=O)O)C(=O)O)C(=O)O)C(=O)N[C@@H](Cc2cccc(c2)CNC(=O)CO4)C(=O)N3)cc1 [compound 37] |  | 
2 | 2 pM | < 6 pM | < 1.26 nM | COc1ccc(C[C@@H]2NC(=O)[C@H]([C@@H](C)O)NC(=O)C3C4CCN3C(=O)[C@@H]3Cc5cn(c6ccc(F)cc56)CCCCCCN(Cc5ccc(cc5)CCNC(=O)[C@]5(C)CCCN5C2=O)C(=O)CCC(=O)N[C@@H](C)C(=O)N[C@H](CNC(=O)CCOCCOCC[N+](C)(C)CCNC(=O)CCOCCOCC[N+](C)(C)CCNC(=O)COCCOCCNC(=O)COCCOCCNC(=O)CCCCCCCCCCCCCCC(=O)O)C(=O)N[C@@H](Cc2cccc(c2)CNC(=O)CO4)C(=O)N3)cc1 [compound 43] |  | 
3 | 2 pM | < 6 pM | < 1.26 nM | COc1ccc(C[C@@H]2NC(=O)[C@H]([C@@H](C)O)NC(=O)[C@@H]3[C@@H]4CCN3C(=O)[C@@H]3Cc5cn(c6ccc(F)cc56)CCCCCCN(Cc5ccc(cc5)CCNC(=O)[C@]5(C)CCCN5C2=O)C(=O)CCC(=O)N[C@@H](C)C(=O)N[C@H](CNC(=O)COCCOCC[N+](C)(C)CCOCCNC(=O)COCCOCCNC(=O)COCCOCCNC(=O)CC[C@H](NC(=O)CCCCCCCCCCCCCCC(=O)O)C(=O)O)C(=O)N[C@@H](Cc2cccc(c2)CNC(=O)CO4)C(=O)N3)cc1 [compound 45] |  | 

Row | SMILES | Ki (PCSK9 [1]; [4]) | Ki (PCSK9 [2]; [5]) | Ki (PCSK9 [3]) | Ki (PCSK9 [1]) | Ki (PCSK9 [2])
4 | COc1ccc(C[C@@H]2NC(=O)[C@H]([C@@H](C)O)NC(=O)[C@@H]3[C@@H]4CCN3C(=O)[C@@H]3Cc5cn(c6ccc(F)cc56)C/C=C/CCCN(Cc5ccc(cc5)CCNC(=O)[C@]5(C)CCCN5C2=O)C(=O)CCC(=O)N[C@@H](C)C(=O)N[C@H](CNC(=O)CCOCCOCC[N+](C)(C)CCNC(=O)COCCOCCNC(=O)COCCOCCNC(=O)CC[C@H](NC(=O)CCCCCCCCCCCCCCC(=O)O)C(=O)O)C(=O)N[C@@H](Cc2cccc(c2)CNC(=O)CO4)C(=O)N3)cc1 [compound 46] |  |  | < 1.26 nM | 1 pM | < 6 pM
